Experimental findings from PubChem BioAssay (NCI) are described below.

SMILES strings stand for the structures.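 Following 48 hours of exposure in 96-well plates, responses at five concentrations were used to interpolate endpoints linearly. Here, GI50 denotes the concentration required for 50% inhibition of growth. At the TGI there is no net growth.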 Bounds are passed on as bounds.

Holding throughout (assay): growth of human tumour cells (NCI), 48 h
The subject of test [1] is HT29 colon.
Test [2] concerns HS 578T breast.
The subject of test [3] is SK-MEL-5 melanoma.
Test [4] has as its system IGROV1 ovarian.
Test [5] relates to HCT-15 colon.
For test [6], the system named is SW-620 colon.
Test [7] has as its system OVCAR-4 ovarian.
The subject of test [8] is MDA-MB-435.
In test [9] the test system is COLO 205 colon.
In test [10] the test system is CAKI-1 renal.

`Nc1nn(C(=O)Nc2ccc(Cc3ccccc3)cc2)c2ccc(Cl)cc12`: the GI50 is 3.54 µM in [1]; 14.4 µM in [2]; 0.33 µM in test [3]; 19.9 µM in [4]; 0.0821 µM in test [5]; 0.724 µM in test [6]. The GI50 in test [7] was 1.48 µM; in [8] it was 0.138 µM; in [9] it was 1.92 µM; in test [10], 0.212 µM. Besides, the TGI in test [1] is 27.3 µM; in [2], 44.3 µM; in test [3], 25.8 µM; in [4], over 100 µM; in test [5], over 100 µM; in [6] it was 54.3 µM. The TGI in test [7] was 49 µM; in [8] it was over 100 µM; in [9], 28.9 µM; in test [10], over 100 µM.

In the case of `O=c1oc2c(Br)c(O)c(Br)cc2c2ccccc12`, the TGI is over 100 µM in [1]; 66.2 µM in [2]; 50.2 µM in test [3]; over 100 µM in test [4]; 42.9 µM in test [5]; over 100 µM in [6]. The TGI in test [7] is 89.9 µM; in test [8] it was over 100 µM; in [9] it was over 100 µM; in [10] it was 31.1 µM.

As for `COc1ccc(Nc2nc(NCc3ccccc3)c3ccccc3n2)cc1`, the GI50 was 3.48 µM in [1]; 10.9 µM in test [2]; 1.68 µM in [3]; 7.12 µM in test [4]; 3.69 µM in [5]; 2.82 µM in [6]. Moreover, the GI50 was 3.11 µM in [7], 1.92 µM in test [8], 1.86 µM in [9] and 3.69 µM in test [10]. For the same compound, the TGI was determined as 11.1 µM in test [1]; 30.5 µM in test [2]; 3.14 µM in test [3]; 25.7 µM in test [4]; 19 µM in [5]; 10.4 µM in test [6]. In addition, the TGI in [7] stood at 14.8 µM; in [8] it was 3.85 µM; in [9] it was 3.33 µM; in test [10] it was 14 µM.

In the case of `NC(=O)Cc1ccccc1Oc1nccc(-c2c(-c3ccc(F)cc3)ncn2C2CCNCC2)n1`, the GI50 in test [1] is over 25 µM; in test [2], over 9.24 µM; in test [3], over 25 µM; in [4], over 25 µM; in [5] it was over 25 µM; in test [6], over 25 µM. The GI50 in [7], in test [8], in test [9] and in [10] was over 25 µM throughout. Moreover, the TGI in test [1], in [2], in test [3], in test [4], in test [5] and in test [6] was over 25 µM in each case. Moreover, the TGI in test [7], in test [8], in test [9] and in test [10] was over 25 µM each time.

In the case of `COC(=O)C1=C2C3=C(C(=O)c4ccccc4C3=O)N(Cc3ccccc3)C2(OC(C)=O)C=CC1=O` (stereo not given), the GI50 in [1] was 37 µM; in test [2], 22 µM; in [3], 10.2 µM; in test [4], 16.5 µM; in test [5], 14.1 µM; in test [6], 17.2 µM. Further, the GI50 in test [7] is 34.4 µM; in test [8], 9.52 µM; in test [9], 26.8 µM; in test [10], 1.89 µM. The TGI in test [1] was over 100 µM; in [2], 71.3 µM; in test [3] it was 24.9 µM; in test [4] it was over 100 µM; in test [5], 53.9 µM; in test [6] it was 94 µM. The TGI in test [7] was over 100 µM; in [8], 25.3 µM; in test [9], over 100 µM; in [10], 13.2 µM.

Turning to `S=c1cn[nH]c2ccc(Br)cc12`, the TGI in test [1], in test [2], in test [3], in [4], in test [5] and in test [6] was over 100 µM in each case. Moreover, the TGI in test [7], in [8], in test [9] and in test [10] was over 100 µM throughout.

Take `COc1cc(C2=Nc3c/c(=C\c4c(O)[nH]c5ccc(Cl)cc45)ccc3=N2)cc(OC)c1OC`: the GI50 in test [1] is 2.11 µM; in test [2] it was 1.69 µM; in test [3] it was 1.58 µM; in test [4], 5.46 µM; in test [5], 3.27 µM; in test [6], 1.98 µM. The GI50 in [7] was 2.18 µM; in [8], 1.73 µM; in test [9], 2.45 µM; in test [10], 5.5 µM. Further, the TGI in test [1] turned out to be 4.5 µM; in [2], 5.86 µM; in test [3], 3.55 µM; in test [4] it was 20.3 µM; in test [5], 11.6 µM; in test [6], 4.41 µM. Moreover, the TGI amounted to 7.9 µM in test [7], 3.86 µM in [8], 7.27 µM in test [9] and 27.8 µM in [10].

Consider `COC(=O)c1c2c(c[n+]([O-])c1C)C(=O)C(NCc1ccccc1)=CC2=O`, for which the GI50 was 0.43 µM in test [1]; 2.4 µM in test [2]; 0.175 µM in [3]; 0.368 µM in test [4]; 0.354 µM in test [5]; 0.319 µM in test [6]. Moreover, the GI50 in test [7] was 0.232 µM; in test [8], 0.193 µM; in test [9], 0.312 µM; in [10] it was 1.27 µM. Moreover, the TGI in test [1] is over 20.3 µM; in test [2], 8.13 µM; in test [3], 0.322 µM; in test [4] it was 1.49 µM; in test [5], 1.53 µM; in test [6], 1.29 µM. Besides, the TGI was 0.835 µM in test [7], 0.376 µM in test [8], 0.984 µM in [9] and 3.18 µM in test [10].
